From patent publication US20250304952A1, “DNA ELEMENT RESPONSIVE TO EXTRACHROMOSOMAL DNA IN CANCER CELLS” (The Board of Trustees of the Leland Stanford Junior …, priority 2021, published 2025)

How the values were obtained:
Assay type in all cases: cell-based, human
MYC in SNU16 = experiment: Oncogene RNA measured by RT-qPCR in SNU16 (MYC); settings: 500 nM JQ1, 6 hours
Method: Cells were then treated for 6 hours with 500 nM JQ1 in DMSO unless otherwise indicated (Sigma-Aldrich SML1524) or an equivalent volume of DMSO.
RNA was extracted using RNeasy Plus mini Kit (QIAGEN 74136). Purified RNA was quantified by Nanodrop (Thermo Fisher). For RT-qPCR, 50 ng of RNA, 1× Brilliant II qRT-PCR mastermix with 1 μL RT/RNase block (Agilent 600825), and 200 nM forward and reverse primer were used. Each Ct value was measured using Lightcycler 480 (Roche) and each mean dCt was averaged from duplicate qRT-PCR reaction and performed in biological triplicate. Relative MYC RNA level (RT-qPCR primers MYC_exon3_fw and MYC_exon3_rv) was calculated by ddCt method compared to 18S and GAPDH controls (RT-qPCR primers GAPDH_fw, GAPDH_rv, 18S_fw, 18S_rv). P values were calculated using a Student's t-test by comparing the relative fold change of biological triplicates.

ecDNA hubs in COLO320-DM = experiment: ecDNA clustering by interphase DNA FISH, autocorrelation g(r); settings: 500 nM, 6 hours
Source text: The Oligopaint FISH probe libraries were constructed as described previously 51 Each oligo consists of a 40 nucleotide (nt) homology to the hg19 genome assemble designed from the algorithm developed from the laboratory of Dr. Ting Wu (https://oligopaints.hms.harvard.edu/). Each library subpool consists of a unique sets of primer pairs for orthogonal PCR amplification and a 20 nt T7 promoter sequence for in vitro transcription and a 20 nt region for reverse transcription. Individual Oligopaint probes were generated by PCR amplification, in vitro transcription, and reverse transcription, in which ssDNA oligos conjugated with ATTO488 and ATTO647 fluorophores were introduced during the reverse transcription step. The Oligopaint covered genomic regions (hg19) used in this study are as follows: chr8: 116967673-118566852 (hg19_COLO_nonecDNA_1.5Mbp), chr8: 127435083-129017969 (hg19_COLO_ecDNA_1.5Mbp), chr8: 128729248-128831223 (hg19_PC3_ecDNA1_100 kb). A ssDNA oligo pool was ordered and synthesized from Twist Bioscience (San Francisco, CA). 15 mm #1.5 round glass coverslips (Electron Microscopy Sciences) were pre-rinsed with anhydrous ethanol for 5 min, air dried, and coated with L-poly lysine solution (100 μg/mL) for at least 2 hours. Fully dissociated ColoDM320 or PC3 cells were seeded onto the coverslips and recovered for at least 6 hours before experiments. Cells were fixed with 4% (v/v) methanol free paraformaldehyde diluted in 1×PBS at room temperature for 10 min. Then cells were washed 2× with 1×PBS and permeabilized in 0.5% Triton-X100 in 1×PBS for 30 min. After 2× wash in 1×PBS, cells were treated with 0.1M HCl for 5 min, followed by 3× washes with 2×SSC and 30 min incubation in 2×SSC+0.1% Tween20 (2×SSCT)+50% (v/v) formamide (EMD Millipore, cat #S4117). […]
To analyze the clustering of ecDNAs, we applied the autocorrelation function as described previously58 in Matlab (2019). g(r) estimates the probability of detecting another ecDNA signal at increasing distances from the viewpoint of an index ecDNA signal and is equal to 1 for a uniform, random distribution. Specifically, the pair auto-correlation function g(r^→) was calculated by the fast Fourier transform (FFT) method described by the equations below.
N(r^→) is the auto-correlation of a mask matrix that has the value of 1 inside the nucleus used for normalization. […] Autocorrelation functions were calculated first by converting the Cartesian coordinates to polar coordinates by Matlab cart2pol( ) function, binning by radius and by averaging within the assigned bins. […]

FGFR2 in SNU16 = experiment: Oncogene RNA measured by RT-qPCR in SNU16 (FGFR2); settings: 500 nM JQ1, 6 hours
COLO320-HSR cells = experiment: PVT1 promoter-driven NanoLuc luciferase reporter in COLO320-HSR; settings: JQ1 500 nM, 6 hours
Source text: We constructed a plasmid containing the 2 kb PVT1 promoter (chr8: 128,804,981-128,806,980, hg19) or the MYC promoter (chr8: 128,745,990-128,748,526, hg19) driving NanoLuc luciferase (PVT1p-nLuc) and a constitutive thymidine kinase (TK) promoter driving Firefly luciferase as an internal control (FIG. 3b). Briefly, pGL4-tk-luc2 (Promega) was digested with KpnI and PciI. A sequence containing multiple cloning sites ([…]), NanoLuc and BGH polyA sequence were inserted in tandem into the vector using Gibson assembly (NEBuilder DNA assembly mix). Next, the PVT1 promoter or the MYC promoter was inserted into the vector via NheI and SalI digestion to generate the final reporter construct. For the negative control, a minimal promoter ([…]) was used in place of the PVT1 promoter. For constructing plasmids with a cis-enhancer, an enhancer (chr8: 128347148-128348310, hg19; positive H3K27ac mark and looping to the PVT1 promoter in HiChIP, overlapping with BRD4 ChIP peak and ATAC-seq peak in COLO320-DM) was inserted directly 5′ to the promoter into the region with multiple cloning sites. […] Luciferase levels were quantified using Nano-Glo Dual reporter luciferase assay (Promega). The reporter level was calculated as the ratio of NanoLuc reading over firefly reading using Tecan M1000. Mean and standard errors were calculated based on three biological replicates with three technical replicate each.

Cc1sc2c(c1C)C(c1ccc(Cl)cc1)=N[C@@H](CC(=O)OC(C)(C)C)c1nnc(C)n1-2 [JQ1]
ecDNA-derived transcription of MYC (MYC in SNU16): reduced
ecDNA hub clustering (interphase DNA FISH, autocorrelation g(r)) (ecDNA hubs in COLO320-DM): dispersed ecDNA hubs
ecDNA-derived transcription of FGFR2 (FGFR2 in SNU16): reduced
repression of PVT1p-mediated transcription (COLO320-HSR cells): ~2 fold
